Source: patent publication US8173606B2, “Sulfated oligosaccharide derivatives” (Progen Pharmaceuticals Limited, priority 2004, dated 2012)

What was measured:
heparanase = target: T1, heparanase (Homo sapiens, UniProt Q9Y251); assay: Heparanase inhibition, Microcon ultrafiltration assay; assay type: biochemical; conditions: 3H labelled HS, pH 5.0, 22° C., 2.5 h
T1 sequence (Q9Y251 158-543 limits assumed): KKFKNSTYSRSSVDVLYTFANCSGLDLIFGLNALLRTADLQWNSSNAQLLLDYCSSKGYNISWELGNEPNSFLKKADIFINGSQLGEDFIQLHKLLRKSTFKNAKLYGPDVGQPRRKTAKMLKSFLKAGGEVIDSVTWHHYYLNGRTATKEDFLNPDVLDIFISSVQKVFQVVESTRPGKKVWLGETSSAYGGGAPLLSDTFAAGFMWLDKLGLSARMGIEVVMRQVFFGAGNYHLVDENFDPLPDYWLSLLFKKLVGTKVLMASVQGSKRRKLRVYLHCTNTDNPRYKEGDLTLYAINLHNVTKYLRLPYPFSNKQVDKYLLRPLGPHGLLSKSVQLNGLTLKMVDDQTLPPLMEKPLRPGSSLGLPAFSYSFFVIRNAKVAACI
T1 sequence (Q9Y251 36-109 limits assumed): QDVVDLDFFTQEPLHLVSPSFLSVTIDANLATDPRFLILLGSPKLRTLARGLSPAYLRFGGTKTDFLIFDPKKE
Procedure: The heparanase assays were performed using a Microcon ultrafiltration assay. The assays rely on the principle of physically separating heparan sulfate (HS) that has been digested by heparanase from native HS to determine heparanase activity. The assay uses ultrafiltration devices (Microcon YM-10) to separate the smaller heparanase-cleaved HS fragments from native HS.
A reaction was set up with a volume of 90 μL, • 40 mM acetate buffer (pH 5.0) • 0.1 mg/mL BSA • 90 ng heparanase • 2.5 μM ^3H labelled HS • various concentrations of inhibitors.
The reactions were set up with all components except the ^3H labelled HS and allowed to equilibrate for 10 min at 22° C. The assays were then initiated by adding the HS and immediately 20 μL was taken, mixed with 80 μL of 10 mM phosphate (pH 7.0) and the 100 μL transferred to a Microcon YM-10 concentrator which was then centrifuged at approximately 14000 g for 5 min. The solution that passed through the membrane (filtrate) was retained. This sample was considered the time=0 sample. The assays (now 70 μL in volume) were allowed to react at 22° C. for 2.5 h and then the filtration step was repeated for three aliquots of 20 μL from each assay.
The time=0 filtrate and the three 2.5 h filtrate samples were counted for ^3H. The difference between the time=0 and the averaged 2.5 h samples gave the amount of heparanase activity. All inhibition assays were run with a heparanase standard assay which was identical to the assay composition above except no inhibitor was present and the amount of heparanase inhibition in the other assays determined by comparison with this standard.

[1] = Pharmacokinetic studies of 35S-labelled compounds after iv administration; conditions: rat; for AUC0-12 h / C0 / Cl* (apparent) / Vd* (apparent) / t1/2* (apparent): in vivo, iv, 2.5 mg/kg; for k* (apparent): iv bolus 2.5 mg/kg
Procedure: The polyol precursors for PG500, 501, 503, 504, 506 and PI-88 (2 mg of each) were desiccated under vacuum over P2O5 for 3 days. Into each vial was syringed 50 μL of a stock solution of 1.77 mg (2.0 mCi) of ^35SO3.pyridine complex and 2 mg SO3.Me3N in 300 μL of anhydrous DMF (Aldrich, redried over freshly ignited 3 A molecular sieves). A further 600 μL of anhydrous DMF was added to the SO3 vial and was distributed to each sample vial. The samples were heated to 60° for 66 hr. SO3.Me3N (14 mg in 300 μL anhydrous DMF) was added to each vessel and the resulting solutions were heated to 60° overnight. The vials were cooled to room temperature and stored at −80° C. awaiting purification.
Each sample was quenched by addition of Na2CO3 (sat. aqu. adjusted to pH 8-9), evaporated to dryness and subjected to SEC (Biogel P2, 2.6×90 cm, flow rate 30 mL/hr, 5 min/fraction). Fractions containing desired material were detected using a G-M counter and DMB test followed by CE.
Male Sprague Dawley rats (250-350 g) were used. The animals were allowed free access to food and water before and during the experiments, during which they were maintained unrestrained in metabolism cages. Rats were anaesthetized with isoflurane (Forthane®). A catheter was inserted in the external jugular vein via an incision in the neck, and was passed under the skin to a second incision in the skin of the back (midline vicinity of the scapulae). This was then exteriorized with the protection of a light metal spring. The incision was closed and the spring fixed to the skin with Michel sutures so that the rats had full range of movement. The animals were carefully monitored during recovery (1-4 h).
All doses were administered as a bolus intravenous injection of 2.5 mg/kg in a dose volume of 2 mL/kg. The total amount of radioactivity administered to each rat was 0.5-10 μCi. The dose level used in this study is 10-fold lower than the no-effect dose previously established for acute toxicity of PI-88. Blood samples (˜250 μL) were collected predose and at 5, 15, 30, 45 min, and 1, 1.5, 2, 4, 8, 12, 24, 36 and 48 h after dosing. The blood samples were immediately centrifuged and the plasma collected. At completion of the experiments, the animals were killed by a lethal overdose of IV pentobarbitone anaesthetic (Nembutal®). Urine was collected from each animal at intervals of 0-12 h, 12-24 h and 24-48 h after dosing. Cage washings (˜15 mL of deionised water) were also collected. At the end of the experiment, bladder contents were aspirated from each animal and added to the 24-48 h voidings. Feces were collected over the same time intervals as the urine.
Aliquots of plasma (100 μL), urine and cage washings (500 μL) were transferred directly to 6 mL polypropylene scintillation vials for determination of radioactivity. Feces collected during each time period (from one animal dosed with each compound) were weighed and homogenised in 4 volumes of deionised water using a mechanical homogeniser. Approximately 1 g (accurately weighed) of this slurry was transferred to a 20 mL glass scintillation vial, 2 mL of tissue solubiliser added and the vials capped and incubated at 60° C. for at least 24 h. Radioactivity was measured following mixing of samples with Packard Ultima Gold liquid scintillation counting cocktail (2.0 mL for plasma and dose, 5.0 mL for urine and cage washings, 10 mL for feces). Counting was conducted on a Packard Tr-Carb liquid scintillation counter. Any result less than three times the background was considered less than the lower limit of quantitation not used in calculations. Plasma, urine and cage washings were counted in triplicate within 5 days of collection and were not corrected for radiochemical decay. Feces were processed as a batch at the completion of the study and the counts from these samples were corrected for radiochemical decay.

Substance	IC50 (heparanase)	AUC0-12 h [1]	C0 [1]	Cl* (apparent) [1]	Vd* (apparent) [1]	t1/2* (apparent) [1]	k* (apparent) [1]
Benzyl Glycoside Polysulfate [PG500]	1.83 ± 0.483 µM	12.6 ± 1.2 μg-eq/h · mL	20.5 ± 1.3 μg-eq/mL	0.199 ± 0.0132 L/h/kg	38.4 ± 3.8 mL	49.8 ± 1.2 min	0.836 ± 0.024 h⁻¹
Octyl Glycoside Polysulfate [PG501]	1.64 ± 0.406 µM	29.7 ± 3.4 μg-eq/h · mL	35.6 ± 3.1 μg-eq/mL	0.0836 ± 0.0091 L/h/kg	22.9 ± 2.2 mL	66 ± 5.4 min	0.633 ± 0.053 h⁻¹
